Experimental data reported in article PMC7397056, “Design, Facile Synthesis and Characterization of Dichloro Substituted Chalcones and Dihydropyrazole Derivatives for Their Antifungal, Antitubercular and Antiproliferative Activities” (Molecules, 2020).
Converted amounts (≈) assume the structure as drawn. Read-outs that look alike come from different tables or passages of the source.

Key:
[1] = test system: Mycobacterium tuberculosis H37Rv; assay: Antitubercular activity, broth dilution assay (MIC); type: cell-based; settings: for fold more antitubercular activity than the chalcones 14 and 16: 29 vs 14, 31 vs 16; for MIC: Middlebrook 7H9 broth, 37 °C, 21 days; for fold better activity than the standard pyrazinamide: ratio of MICs vs pyrazinamide (MIC 25.34 µM)
[2] = test system: prostate cancer cell lines (DU-145); assay: Antiproliferative activity, MTT assay; type: cell-based; settings: Homo sapiens, 48 h, mean ± SD (n = 3)
Protocol: (§1) The antiproliferative activity of the compounds was determined their IC50 values. Methotrexate (Mtx; positive control) was used as a reference standard for comparing the antiproliferative activity of the target compounds. The MTT (3-(4,5-dimethylthiazol-2-yl)-2,5-diphenyl tetrazolium bromide) assay was based on the reduction of the soluble MTT (0.5 mg mL^−1, 100 µL) into a blue-purple formazan product, mainly by the activity of mitochondrial reductase enzymes inside the living cells. The prostate cancer cell lines, DU-145 cells, were cultured in Dulbecco’s Modified Eagle Medium (DMEM) media at 37 °C and humidified at 5% CO2. Stock solutions of the test compounds (17–46) were prepared in 0.1% DMSO followed by dilution with sterile water to obtain the desired final concentrations. Briefly, the cells were placed on 96-well plates at 100 µL total volume with the density of 1 × 10^4 cells per well and were allowed to adhere for 24 h. Then the medium was replaced with fresh media containing different dilutions of the test compounds and incubated for additional 48 h at 37 °C in DMEM with 10% fetal bovine serum (FBS) medium. Subsequently, the medium was replaced with 90 μL of fresh DMEM without FBS. The above wells were treated with 10 μL of MTT reagent (5 mg/mL of stock solution in DMEM without FBS) and incubated at 37 °C for 3–4 h. The formed blue formazan crystals were dissolved in 200 μL of DMSO. The optical density was determined at 570 nm using a micro plate reader. The assay was performed in triplicate for three independent experiments. The same experimentation was also done to confirm that the DMSO (negative control) had no effect in the study. The results had good reproducibility between replicate wells with standard errors below 10%. The antiproliferative activity results measured as IC50 values in µg/mL were converted and expressed in µM. Additionally, the cytotoxic activity of the compounds was also measured employing the same protocol discussed above to assess their toxicity on normal human cell lines (L02).

[3] = Cytotoxic activity on normal cells, MTT assay; type: cell-based
Protocol: as §1

[4] = test system: Aspergillus niger (ATCC-6275); assay: Antifungal activity, serial tube dilution method (MIC); settings: for MIC: Aspergillus niger
[5] = test system: Candida tropicalis (ATCC-1369); assay: as above; settings: for MIC: Candida tropicalis, ATCC1369, 18 h, read-out: Antifungal activity MIC, C. tropicalis, serial tube dilution, 37 °C, 18 h, average of three
[6] = test system: normal human cell lines (L02); assay: Cytotoxic activity on normal cells, MTT assay; type: cell-based; settings: normal human cell line L02
Protocol: as §1

[7] = Mycobacterium tuberculosis, H37RV, 504 h
[8] = L02 cells (normal human cell line)
[9] = ATCC6275, 18 h, read-out: Antifungal activity MIC, A. niger, serial tube dilution, 37 °C, 18 h, average of three

SMILES | fold more antitubercular activity than the chalcones 14 and 16 [1] [fold] | MIC [1, 7] [µM] | IC50 [2] [µM] | IC50 at 48 h [3, 8] [mg/L] | melting point [°C] | MIC [4, 9] [µM] | MIC [5] [µM] | IC50 at 48 h ([3]; normal human cell line L02) [mg/L] | fold better activity in comparison to fluconazole, Aspergillus niger [4] [fold] | fold better activity in comparison to fluconazole, Candida tropicalis [5] [fold] | fold improvement in antitubercular activity compared to compound 20 ([1]; comparator compound 20) [fold] | fold improvement in antitubercular activity compared to compound 21 ([1]; comparator compound 21) [fold] | fold improvement in MIC of dihydropyrazole over chalcone 16, Aspergillus niger ([4]; 31 (5.35 µM) vs 16 (14.12 µM)) [fold] | fold improvement in MIC of dihydropyrazole over chalcone 16, Candida tropicalis ([5]; 31 (5.35 µM) vs 16 (14.12 µM)) [fold] | MIC [1] [µM] | fold better activity than the standard pyrazinamide [1] [fold] | MIC ([4]; ATCC6275, read-out: Antifungal MIC, Aspergillus niger) [mg/L] | Cytotoxic activity IC50, L02 [6] [mg/L] | fold improvement in antitubercular activity vs. compound 2 ([1]; comparator compound 2 (MIC 343.44 µM))
Clc1ccc(C2=NN(c3ccccc3)C(c3ccco3)C2)cc1Cl (stereo not drawn) [Compound 29, 3-(3,4-dichlorophenyl)-1-phenyl-5-(furan-2-yl)-4,5-dihydro-1H-pyrazole] | 2.6 | 17.5 (≈ 6.25 µg/mL) | 162 ± 2 | > 75 | 200 | 11.2 | 11.2 (≈ 4 µg/mL) | – | – | – | – | – | – | – | – | – | – | – | –
Fc1ccc(C2CC(c3ccc(Cl)c(Cl)c3)=NN2c2ccccc2)c(F)c1 (stereo not drawn) [Compound 22, 3-(3,4-dichlorophenyl)-1-phenyl-5-(2,4-difluorophenyl)-4,5-dihydro-1H-pyrazole] | – | 3.96 (≈ 1.6 µg/mL) | 262 ± 2 | > 75 | 291 | 19.8 | 19.8 (≈ 8 µg/mL) | – | – | – | – | – | – | – | – | – | – | – | –
O=C(/C=C/c1cccs1)c1ccc(Cl)c(Cl)c1 [Compound 16, (E)-1-(3,4-dichlorophenyl)-3-(thiophen-2-yl)prop-2-en-1-one] | – | 22.1 (≈ 6.25 µg/mL) | 17 ± 1 | – | 194 | 14.1 | 14.1 (≈ 4 µg/mL) | > 50 | 1.84 | 1.35 | – | – | – | – | – | – | – | – | –
Clc1ccc(C2CC(c3ccc(Cl)c(Cl)c3)=NN2c2ccccc2)c(Cl)c1 (stereo not drawn) [Compound 23, 3-(3,4-dichlorophenyl)-1-phenyl-5-(2,4-dichlorophenyl)-4,5-dihydro-1H-pyrazole] | – | 7.15 (≈ 3.12 µg/mL) | 206 ± 2 | > 75 | 302 | 18.3 | 36.7 (≈ 16 µg/mL) | – | – | – | 4 | 2 | – | – | – | – | – | – | –
Clc1ccc(C2=NN(c3ccccc3)C(c3cccs3)C2)cc1Cl (stereo not drawn) [Compound 31, 3-(3,4-dichlorophenyl)-1-phenyl-5-(thiophen-2-yl)-4,5-dihydro-1H-pyrazole] | 2.6 | 8.35 (≈ 3.12 µg/mL) | 32 ± 1 | – | 212 | 5.35 | 5.35 (≈ 2 µg/mL) | > 75 | 4.9 | 3.7 | – | – | 2.6 | 2.6 | – | – | – | – | –
Clc1ccc(C2=NN(c3ccccc3)C(c3ccccc3Cl)C2)cc1Cl (stereo not drawn) [Compound 21, 3-(3,4-dichlorophenyl)-1-phenyl-5-(2-chlorophenyl)-4,5-dihydro-1H-pyrazole] | – | 15.6 to 32.4 (≈ 6.25 to 13 µg/mL) | 134 ± 2 | > 75 | 133 | 19.9 | 39.8 (≈ 16 µg/mL) | – | – | – | – | – | – | – | 15.55 (≈ 6.25 µg/mL) | 1.6 | 19.9 | – | –
Clc1ccc(C2=NN(c3ccccc3)C(c3ccncc3)C2)cc1Cl (stereo not drawn) [Compound 28, 3-(3,4-dichlorophenyl)-1-phenyl-5-(pyridin-4-yl)-4,5-dihydro-1H-pyrazole] | – | 67.9 (≈ 25 µg/mL) | 173 ± 2 | > 75 | 214 | 21.7 | 21.7 (≈ 8 µg/mL) | – | – | – | – | – | – | – | – | – | – | – | –
Clc1ccc(C2=NN(c3ccccc3)C(c3ccccn3)C2)cc1Cl (stereo not drawn) [Compound 26, 3-(3,4-dichlorophenyl)-1-phenyl-5-(pyridin-2-yl)-4,5-dihydro-1H-pyrazole] | – | 67.9 (≈ 25 µg/mL) | 271 ± 2 | > 75 | 191 | 21.7 | 21.7 (≈ 8 µg/mL) | – | – | – | – | – | – | – | – | – | – | – | –
CN(Cc1cnc2nc(N)nc(N)c2n1)c1ccc(C(=O)N[C@@H](CCC(=O)O)C(=O)O)cc1 [Methotrexate, reference compound] | – | – | 11 ± 1 | > 75 | – | – | – | – | – | – | – | – | – | – | – | – | – | >75 | –
O=C(/C=C/c1ccccn1)c1ccc(Cl)c(Cl)c1 [Compound 11, (E)-1-(3,4-dichlorophenyl)-3-(pyridin-2-yl)prop-2-en-1-one] | – | 45.1 (≈ 12.5 µg/mL) | 353 ± 2 | > 50 | 156 | 28.9 | 28.9 (≈ 8.03 µg/mL) | – | – | – | – | – | – | – | – | – | – | – | –
O=C(/C=C/c1ccc(C(F)(F)F)cc1)c1ccc(Cl)c(Cl)c1 [Compound 9, (E)-1-(3,4-dichlorophenyl)-3-(4-trifluoromethylphenyl)prop-2-en-1-one] | – | 9.03 (≈ 3.12 µg/mL) | 292 ± 1 | > 50 | 169 | 11.6 | 11.6 (≈ 4 µg/mL) | – | – | – | – | – | – | – | – | 2.8 | – | – | approximately 40 fold
O=C(/C=C/c1ccco1)c1ccc(Cl)c(Cl)c1 [Compound 14, (E)-1-(3,4-dichlorophenyl)-3-(furan-2-yl)prop-2-en-1-one] | – | 47 (≈ 12.6 µg/mL) | 206 ± 2 | > 50 | 172 | 235 | 117 (≈ 31.4 µg/mL) | – | – | – | – | – | – | – | – | – | – | – | –
Clc1ccc(C2=NN(c3ccccc3)C(c3cccnc3)C2)cc1Cl (stereo not drawn) [Compound 27, 3-(3,4-dichlorophenyl)-1-phenyl-5-(pyridin-3-yl)-4,5-dihydro-1H-pyrazole] | – | 67.9 (≈ 25 µg/mL) | 211 ± 2 | > 75 | 184 | 21.7 | 21.7 (≈ 8 µg/mL) | – | – | – | – | – | – | – | – | – | – | – | –
Clc1ccc(C2=NN(c3ccccc3)C(c3ccc4c(c3)OCO4)C2)cc1Cl (stereo not drawn) [Compound 25, 3-(3,4-dichlorophenyl)-1-phenyl-5-(benzo[d][1,3]dioxol-5-yl)-4,5-dihydro-1H-pyrazole] | – | 60.8 (≈ 25 µg/mL) | 131 ± 2 | > 75 | 212 | 19.4 | 19.4 (≈ 8 µg/mL) | – | – | – | – | – | – | – | – | – | – | – | –
